For the assay, the target named is T1, human cannabinoid CB2 receptor (Homo sapiens, UniProt P34972).
T1 construct: expressed in transfected cells; host or cells: Saccharomyces cerevisiae strain MMY23 (cassette integrated at the ura3 locus, GPD promoter)
The assay can be described thus: Cannabinoid CB2 receptor agonist activity, yeast assay. Type of assay: cell-based. The following applies: relative to HU210; averages of a number of experiments; read-out: efficacy (Emax) at the cloned human cannabinoid CB2 receptor. On the procedure: The cannabinoid CB2 receptor agonist activity of compounds of formula (I) was determined in accordance with the following experimental method.
Yeast (Saccharomyces cerevisiae) cells expressing the human cannabinoid CB2 receptor were generated by integration of an expression cassette into the ura3 chromosomal locus of yeast strain MMY23. This cassette consisted of DNA sequence encoding the human CB2 receptor flanked by the yeast GPD promoter to the 5′ end of CB2 and a yeast transcriptional terminator sequence to the 3′ end of CB2. MMY23 expresses a yeast/mammalian chimeric G-protein alpha subunit in which the C-terminal 5 amino acids of Gpa1 are replaced with the C-terminal 5 amino acids of human Gαi½ (as described in Brown et al. (2000), Yeast 16:11-22). Cells were grown at 30° C. in liquid Synthetic Complete (SC) yeast media (Guthrie and Fink (1991), Methods in Enzymology, Vol. 194) lacking uracil, tryptophan, adenine and leucine to late logarithmic phase (approximately 6 OD600/ml).
Agonists were prepared as […] solutions in DMSO. EC50 values (the concentration required to produce 50% maximal response) were estimated using 4 fold dilutions (BiomekFX, Beckman) into DMSO. Agonist solutions in DMSO (1% final assay volume) were transferred into black microtitre plates from Greiner (384-well). Cells were suspended at a density of 0.2 OD600/ml in SC media lacking histidine, uracil, tryptophan, adenine and leucine and supplemented with 10 mM 3-aminotriazole, 0.1M sodium phosphate pH 7.0, and 10 μM fluorescein di-β-D-glucopyranoside (FDGlu). This mixture (50 μl per well) was added to agonist in the assay plates (Multidrop 384, Labsystems). After incubation at 30° C. for 24 hours, fluorescence resulting from degradation of FDGlu to fluorescein due to exoglucanase, an endogenous yeast enzyme produced during agonist-stimulated cell growth, was determined using a fluorescence microtitre plate reader (Tecan Spectrofluor or LJL Analyst excitation wavelength: 485 nm; emission wavelength: 535 nm). Fluorescence was plotted against compound concentration and iteratively curve fitted using a four parameter fit to generate a concentration effect value. Efficacy (Emax) was calculated from the equation
Emax=Max[compound X]−Min[compound X]/Max[HU210]−Min[HU210]×100%
where Max[compound X] and Min[compound X] are the fitted maximum and minimum respectively from the concentration effect curve for compound X, and Max[HU210] and Min[HU210] are the fitted maximum and minimum respectively from the concentration effect curve for (6aR,10aR)-3-(1,1′-Dimethylheptyl)-6a,7,10,10a-tetrahydro-1-hydroxy-6,6-dimethyl-6H-dibenzo [b,d]pyran-9-methanol (HU210; available from Tocris). Equieffective molar ratio (EMR) values were calculated from the equation
Where EC50[compound X] is the EC50 of compound X and EC50[HU210] is the EC50of HU210.

Structures are written as SMILES. Counter-ions that a name gives are not always drawn.

What is called Emax is the greatest response seen or fitted, relative to the assay's reference.

T1 sequence (P34972 whole entry): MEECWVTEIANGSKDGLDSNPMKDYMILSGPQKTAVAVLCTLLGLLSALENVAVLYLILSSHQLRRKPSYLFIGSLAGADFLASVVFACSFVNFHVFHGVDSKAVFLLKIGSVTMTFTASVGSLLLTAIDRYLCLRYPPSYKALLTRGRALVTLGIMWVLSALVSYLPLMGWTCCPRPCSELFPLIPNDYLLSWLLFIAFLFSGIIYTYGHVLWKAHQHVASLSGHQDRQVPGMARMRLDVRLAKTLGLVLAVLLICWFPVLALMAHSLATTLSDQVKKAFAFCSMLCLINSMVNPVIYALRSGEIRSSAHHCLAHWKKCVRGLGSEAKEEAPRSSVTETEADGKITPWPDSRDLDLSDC

In the case of `Cn1cnc2c(Nc3cccc(F)c3)ncc(C(=O)N3CCOCC3)c21` [Example 18, N-(3-Fluorophenyl)-1-methyl-7-(4-morpholinylcarbonyl)-1H-imidazo[4,5-c]pyridin-4-amine hydrochloride salt], the Emax was > 50%. `Cc1c(Nc2ncc(C(=O)N3CCOCC3)c3c2ncn3C)cccc1C(F)(F)F` [Example 20, 1-Methyl-N-[2-methyl-3-(trifluoromethyl)phenyl]-7-(4-morpholinylcarbonyl)-1H-imidazo[4,5-c]pyridin-4-amine hydrochloride salt]: the Emax is > 50%. With `Cn1cnc2c(Nc3ccc(Cl)cc3Cl)ncc(C(=O)N3CCCC3)c21` [Example 7, N-(2,4-Dichlorophenyl)-1-methyl-7-(1-pyrrolidinylcarbonyl)-1H-imidazo[4,5-c]pyridin-4-amine hydrochloride salt], the Emax was > 50%. On to `Cn1cnc2c(Nc3cccc(Br)c3)ncc(C(=O)N3CCCCC3)c21` [Example 1, N-(3-Bromophenyl)-1-methyl-7-(1-piperidinylcarbonyl)-1H-imidazo[4,5-c]pyridin-4-amine hydrochloride salt], for which the Emax is > 50%. The figure for `Cn1cnc2c(Nc3cccc(Cl)c3)ncc(C(=O)N3CCCCC3)c21` [Example 10, N-(3-Chlorophenyl)-1-methyl-7-(1-piperidinylcarbonyl)-1H-imidazo[4,5-c]pyridin-4-amine hydrochloride salt] is > 50%; for `CC(C)CNC(=O)c1cnc(Nc2cccc(Cl)c2)c2ncn(C)c12` [Example 12, 4-[(3-Chlorophenyl)amino]-1-methyl-N-(2-methylpropyl)-1H-imidazo[4,5-c]pyridine-7-carboxamide hydrochloride salt] it is > 50%; for `Cn1cnc2c(Nc3ccc(Cl)cc3Cl)ncc(C(=O)N3CCOCC3)c21` [Example 5, N-(2,4-Dichlorophenyl)-1-methyl-7-(4-morpholinylcarbonyl)-1H-imidazo[4,5-c]pyridin-4-amine hydrochloride salt] it is > 50%.

As to `Cn1cnc2c(Oc3cccc(Cl)c3)ncc(C(=O)N3CCOCC3)c21` [Example 14, 4-1(3-Chlorophenyl)oxy]-1-methyl-7-(4-morpholinylcarbonyl)-1H-imidazo[4,5-c]pyridine hydrochloride salt], the Emax was > 50%. In the case of `Cn1cnc2c(Nc3ccc(F)c(Cl)c3)ncc(C(=O)N3CCOCC3)c21` [Example 22, N-(3-Chloro-4-fluorophenyl)-1-methyl-7-(4-morpholinylcarbonyl)-1H-imidazo[4,5-c]pyridin-4-amine hydrochloride salt], the Emax was > 50%. For the molecule `Cn1cnc2c(Nc3cccc(C(F)(F)F)c3F)ncc(C(=O)N3CCOCC3)c21` [Example 21, N-[2-Fluoro-3-(trifluoromethyl)phenyl]-1-methyl-7-(4-morpholinylcarbonyl)-1H-imidazo[4,5-c]pyridin-4-amine hydrochloride salt], the Emax was > 50%. As for `Cn1cnc2c(Nc3cccc(Br)c3)ncc(C(=O)N3CCCC3)c21` [Example 3, N-(3-Bromophenyl)-1-methyl-7-(1-pyrrolidinylcarbonyl)-1H-imidazo[4,5-c]pyridin-4-amine hydrochloride salt], the Emax is > 50%. Regarding `Cn1cnc2c(Nc3cccc(OC(F)(F)F)c3)ncc(C(=O)N3CCOCC3)c21` [Example 17, 1-Methyl-7-(4-morpholinylcarbonyl)-N-{3-[(trifluoromethyl)oxy]phenyl}-1H-imidazo[4,5-c]pyridin-4-amine hydrochloride salt], the Emax was > 50%.

Turning to `CC(C)CNC(=O)c1cnc(Nc2cccc(Br)c2)c2ncn(C)c12` [Example 4, 4-[(3-Bromophenyl)amino]-1-methyl-N-(2-methylpropyl)-1H-imidazo[4,5-c]pyridine-7-carboxamide hydrochloride salt], the Emax is > 50%. Consider `Cn1cnc2c(Oc3cccc(Cl)c3)ncc(C(=O)N3CCCCC3)c21` [Example 13, 4-[(3-Chlorophenyl)oxy]-1-methyl-7-(1-piperidinylcarbonyl)-1H-imidazo[4,5-c]pyridine hydrochloride salt], for which the maximal effect (Emax) was > 50%.
